Measured values taken from paper PMC7570671, “Synthesis and Biological Evaluation of Novel Benodanil-Heterocyclic Carboxamide Hybrids as a Potential Succinate Dehydrogenase Inhibitors” (Molecules, 2020).
pIC50: −log10 of the molar value.

What follows are compounds tested against T1, succinate dehydrogenase (SDH) from mitochondria of R. solani (Rhizoctonia solani, UniProt A0A0K6FYZ3+A0A0K6G4J6+A0A0K6G6J3) (assay: succinate:ubiquinone/DCPIP reductase inhibition in isolated mitochondria, absorbance at […] nm).
T1 construct: gene sdhB; native complex II in isolated mitochondria, not purified; with Succinate dehydrogenase [ubiquinone] flavoprotein subunit, mitochondrial
Type: biochemical

T1 sequence (A0A0K6FYZ3 29-278): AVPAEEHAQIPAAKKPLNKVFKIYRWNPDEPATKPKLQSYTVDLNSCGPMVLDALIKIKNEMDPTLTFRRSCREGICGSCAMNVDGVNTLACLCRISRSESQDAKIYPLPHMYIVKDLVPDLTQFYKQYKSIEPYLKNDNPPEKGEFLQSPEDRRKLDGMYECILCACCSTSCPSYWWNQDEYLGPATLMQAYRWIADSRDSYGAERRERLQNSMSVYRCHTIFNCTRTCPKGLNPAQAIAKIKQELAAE
T1 sequence (A0A0K6G4J6 37-154): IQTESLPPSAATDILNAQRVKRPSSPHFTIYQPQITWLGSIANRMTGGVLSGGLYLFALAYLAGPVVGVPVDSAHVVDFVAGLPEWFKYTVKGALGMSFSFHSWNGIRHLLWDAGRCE
T1 sequence (A0A0K6G6J3 32-176): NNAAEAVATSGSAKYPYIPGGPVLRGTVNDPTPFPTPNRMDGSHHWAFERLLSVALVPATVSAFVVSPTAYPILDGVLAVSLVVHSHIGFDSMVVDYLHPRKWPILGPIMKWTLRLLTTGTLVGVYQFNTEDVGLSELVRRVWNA
T1 sequence (A0A0K6G1V0 48-643 partner): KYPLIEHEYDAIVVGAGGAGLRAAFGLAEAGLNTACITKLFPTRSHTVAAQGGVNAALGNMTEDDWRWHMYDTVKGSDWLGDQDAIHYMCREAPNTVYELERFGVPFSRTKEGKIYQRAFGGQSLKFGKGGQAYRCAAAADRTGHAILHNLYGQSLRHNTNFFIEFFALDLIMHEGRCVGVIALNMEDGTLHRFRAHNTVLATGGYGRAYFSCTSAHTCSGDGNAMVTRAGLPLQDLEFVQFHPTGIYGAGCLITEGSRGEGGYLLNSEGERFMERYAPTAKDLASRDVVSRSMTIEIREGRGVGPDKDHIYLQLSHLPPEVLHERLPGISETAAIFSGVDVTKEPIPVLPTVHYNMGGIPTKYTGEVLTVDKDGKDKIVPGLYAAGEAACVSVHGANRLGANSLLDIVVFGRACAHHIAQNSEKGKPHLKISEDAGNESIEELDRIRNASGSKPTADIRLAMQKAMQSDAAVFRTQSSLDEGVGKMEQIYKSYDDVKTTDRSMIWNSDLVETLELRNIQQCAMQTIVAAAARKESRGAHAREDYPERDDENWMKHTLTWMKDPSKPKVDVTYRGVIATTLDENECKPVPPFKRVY

Row | Structure (SMILES) | pIC50
1 | O=C(Nc1ccccc1)c1ccccc1I [benodanil] | 3.72
2 | CC(C)c1cccc(NC(=O)c2ccccc2NC(=O)c2cn(C)nc2C(F)F)c1 [compound 17] | 3.89
3 | Cn1cc(C(=O)Nc2ccccc2C(=O)Nc2cccc(C(F)(F)F)c2)c(C(F)F)n1 [compound 18] | 3.89
